This note sets out measurements from publication PMC6391964, “Radical‐Mediated Thiol‐Ene Strategy: Photoactivation of Thiol‐Containing Drugs in Cancer Cells” (Angewandte Chemie (International Ed. in English), 2018).

The subject of data set [1] is HCT-116 colon carcinoma cells. The format is cell-based, human. How it is done:
(§1) T a bl e S4. The parallel artific ial membrane permeability assay (PAM PA). […]
(§2) […] The cel l s were s pl it before reac hi ng confl uence w i t h 0. 05% T ry ps i n-ED TA (G i bco™, The rmo Fisher Scientific).
(§3) C ell v ia bility a ssa y
HC T-116 cells suspended in McCoy’s 5A m edium were plated in 96 -w el l pl at es (200 μ L, 2, 500 cells/well), incubated (37 °C, 5% CO2), and 24 h later treated with various concentrations of compou nds or s ol v ent cont rol (0. 25% D M SO). […] […] Cell viability w as cal cul at ed accordi ng t o t he manufact u rer’ s i ns t ruct i ons (Promeg a).
T a bl e S5. GI50 of the L argazole, L argazole Thiol and Stapled L argazole

Another data set relates to HDAC. Put plainly: Fluorometric HDAC activity assay with HCT-116 cell lysates. The format is cell-based, human. To be noted: UV-irradiated premixed group of stapled largazole and DPAP, relative to control groups and non-irradiation group, Ex/Em 355/460 nm. How it is done:
(§4) Viability Viability Viability
(§5) DPAP Toxicity DPAP+64W-15min DPAP+80W-15min
(§6) Figu r e S7. The DPAP c onc entration and UV c ondition Sc reening. a) The cytotoxicity of DPAP without UV; b) The cytotoxicity of DPAP with UV, 365 nm, 64W, 15 min; c) The cytotoxicity of DPAP with UV, 365 nm, 80W, […]
(§7) P hotoa ctiv a tion of S ta pled La r g a zole in H C T-116 cells
(§8) Plate Cells Compounds UV CellTiter Blue Detect
(§9) Sch eme S6. The phot oact ivat ion of St apled L argazole in HC T- 116 c ells.
(§10) […] […] […] Aft er a not her 48 h of i ncubat i on, t he cel l v i abil it y w as measured according to the general method a bove.
(§11) H istone D ea cety la se ( H D AC ) Activ ity Assa y ( Fluor om etr ic) Following the measurement of the cell viability, the plates were washed with cold PBS for three t i mes. […]
(also on this page, place not known: Condition Screening Figure concentration condition Screening. Photoactivation Stapled Largazole HCT-116 Scheme photoactivation Stapled Largazole HCT-116 cells. HCT-116 cells plated in 200 μL medium per well density 2,500 cells/well grown in plates. incubated oC, 5% CO2). After h, cells various (Largazole, Largazole Thiol Stapled Largazole nM, 1.5 μM) solvent control (0.25% DMSO). group irradiated with light W) min. […]
(Thermo Sci ent i fi c™). […] Aft er be i ng i ncubat ed fo r an ot her 30 mi n at R T, t he fl uores cence i nt ens i t y w as read at Ex /Em = 35 5 n m / 4 60 nm. […]

The next data set has as its system HCT-116 cells. Put plainly: Photoactivation of stapled largazole in HCT-116 cells (cell viability). The class given is cell-based, human. To be noted: stapled largazole 150 nM premixed with DPAP 1.5 μM, UV 365 nm, 80 W, 15 min, then 48 h, compared with non-irradiation, stapled largazole and largazole thiol groups. As for the experimental part: as §4, §5, §6, §7, §8, §9, §10, §11
(also on this page, place not known: Condition Screening Figure concentration condition Screening. Photoactivation Stapled Largazole HCT-116 Scheme photoactivation Stapled Largazole HCT-116 cells. HCT-116 cells plated in 200 μL medium per well density 2,500 cells/well grown in plates. incubated oC, 5% CO2). After h, cells various (Largazole, Largazole Thiol Stapled Largazole nM, 1.5 μM) solvent control (0.25% DMSO). group irradiated with light W) min. After another of incubation, viability was above. […]

Data set [2] can be described thus: Parallel artificial membrane permeability assay (PAMPA). The format is in vitro ADME. To be noted: PAMPA Evolution, Pion GIT-0 phospholipid mixture, ~50 μM, ~15 h, UV read-out, average of quadruplicates. As for the experimental part:
[…] […] The effect i v e permeability, Pe, of each compound was measured at the customer -s peci fi ed pHs i n t he dono r compart ment us i ng l ow-bi ndi ng , l ow UV P ri s ma bu ffer. […] The propri et ary s cav eng er mi mi cs s erum prot ei ns and bl ood ci rcul at i on, t hus creat i ng si nk condi t i ons .
I n t he defaul t p rot oc ol t he a queous s ol ut i ons of s t udi ed com poun ds are p repared by di l ut i ng and thoroughly mixing 3 μL of DMSO stock in 600μL of Prisma HT buffer. Final concentration of org ani c s ol v ent (D M SO) i n aqueous buf fer i s ≤ 0. 5 % (v /v ).
The PAM PA s andw i ch was assembl ed and al l owed to i ncubat e for ~15 ho urs . The s ol ut i ons i n t he don or compart ment w ere un- stirred within du ration of t he ex peri ment . Thus , t he t hi ck nes s of t he aqueous bounda ry l ay er ex pect ed t o be about 1000 μ m. […] Ket oprofen, Verapmi l and P ropan ol ol w ere us ed as […]
[…] […] Act ual pH t he bu ffers w as 7. 40 ± 0. 05.
S t o c k sol u ti ons preparation
The samples were diluted with an organic solvent (DMSO) to prepare stock s ol ut i ons at concent rat i on ~10 mM . […] 40 […]
as §1, §2, §3
HC T-116 cells suspended in McCoy’s 5A m edium were plated in 96 -w el l pl at es (200 μ L, 2, 500 […]
In general terms: In PAMPA a lipid-coated filter parts donor from acceptor wells.

The nature of data set [3]: UV-initiated thiol-ene decaging reaction (HPLC). To be noted: 1-thio-β-D-glucose tetraacetate and DPAP, UV irradiation 365 nm, 15 minutes; HPLC trace. The format is physicochemical. The text has this:
Inspired by this AFCT reaction, we hypothesized that the isobutylene structure could be used as a bridging graft to cage thiol‐containing drugs and allow further controlled activation of anticancer drugs by means of a radical‐mediated thiol‐ene mechanism (Scheme 1). […] Our research began with N‐tert‐butoxycarbonyl‐L‐cysteine methyl ester (N‐Boc‐Cys‐OMe 1), which was protected with 3‐bromo‐2‐bromomethyl‐1‐propene (Table 1 and Supporting Information). The stapled cysteine 2 was then screened under a series of reaction conditions. Firstly, different PIs were tested with the same amounts of thiol source, 1‐thio‐β‐D‐glucose tetraacetate (4AcGlcSH), and 2 under irradiation at 365 nm. […] However, the other PI, 2,2‐dimethoxy‐2‐phenylacetophenone (DPAP) successfully promoted the reaction and released 1. β‐Mercaptoethanol (BME) was also tested as the thiol compound under the same reaction conditions. […] However, when N,N‐dimethylformamide (DMF) was used as solvent, two mixed disulfides resulting from the reaction between the 1‐thioglucose and N‐Boc‐cysteine methyl ester 1′ were observed. […]
The cyclic depsipeptide largazole is a marine natural product, and its derivatives are recognized as promising potential anticancer therapeutics. […] Next, the growth‐inhibitory activity was evaluated with human colon carcinoma cell lines, HCT‐116 (Figure 2 c). […]

Structures are written as SMILES. Where two headings read alike, the source gives them in different places.

In turn, `CC(C)[C@@H]1NC(=O)[C@]2(C)CSC(=N2)c2csc(n2)CNC(=O)C[C@@H](/C=C/CCS)OC1=O` [largazole thiol] had a GI50 in data set [1] (48 h) of 185 nM.
Still for that read-out and setting: the value for `CCCCCCCC(=O)SCC/C=C/[C@@H]1CC(=O)NCc2nc(cs2)C2=N[C@@](C)(CS2)C(=O)N[C@@H](C(C)C)C(=O)O1` [largazole] was 1.43 nM.
Take `C=C(CSCC/C=C/[C@@H]1CC(=O)NCc2nc(cs2)C2=N[C@@](C)(CS2)C(=O)N[C@@H](C(C)C)C(=O)O1)CSCC/C=C/[C@@H]1CC(=O)NCc2nc(cs2)C2=N[C@@](C)(CS2)C(=O)N[C@@H](C(C)C)C(=O)O1` [stapled largazole]: the “HDAC activity (fluorescence) after photoactivation” value in the data set with HDAC was “significant decrease of fluorescence”. Also, the “Cell viability after photoactivation” value with HCT-116 cells is recorded as “significantly lower cell viability”. In addition, the “logPe (Avg. logPe)” value in data set [2] (donor Prisma HT buffer pH 7.4, acceptor sink buffer pH 7.4, DMSO <0.5%, unstirred) was −5.29. The Papp in data set [2] (donor Prisma HT buffer pH 7.4, acceptor sink buffer pH 7.4, DMSO <0.5%, unstirred, read-out: Pe, effective permeability (Avg. Pe)) is 5.3 ×10⁻⁶ cm/s. Moreover, the “Avg. %R, membrane retention” value in data set [2] (donor pH 7.4, by mass balance) was found to be 10%. Moreover, in data set [3], the “Conversion in the decaging reaction” value is listed as “Full conversion”. For the same compound, in data set [1] (HCT-116 cells, 48 h treatment, CellTiter-Blue, read-out: GI50), the 50% growth inhibitory concentration (GI50) amounted to 408 nM.

As usually defined, the GI50 is the concentration giving 50% growth inhibition.
